Results from patent US10322032B2, “Absorbent article comprising a fragrance or odor control composition” (The Procter & Gamble Company, priority 2013, dated 2019).

Legend:
[1] = log P, n-octanol/water partition coefficient (EPA OPPTS 830.7550 shake flask method); assay type: physicochemical; conditions: partitioning between octanol and water; for logP: n-octanol/water
Text: The use of log P values is well known in the chemical arts as representing the relative affinity that a material has for partitioning between octanol and water, so that a material that partitions more readily into octanol would tend to be more lipophillic and have a higher log P value than a material that partitions less readily into octanol. […] 1996, under the title “Product Properties Test Guidelines—OPPTS 830.7550 Partition Coefficient (n-Octanol/Water), Shake flask method.” which description is incorporated herein by reference. In following this EPA method in all instances where a recommended procedure is described (such as number of rotations of the shaker) the recommended procedure should be followed. For the analytical determination of the substance in the two phases a skilled person will know what analytical method to use, gas chromatography (GC) can be preferably used, while HPLC can be used in case GC is not suitable.

[2] = Kovats Retention Index by gas chromatography on DB-5 column against n-alkane standards; assay type: physicochemical; conditions: GC, non-isothermal, C8-C22 n-alkane standards
Text: Kovats Index as it is known in the art, is defined as the selective retention of perfume raw materials (PRMs) onto chromatographic columns based on the retention volume of the substance with respect to that to a homologous series of n-alkane standards.
The Kovats Index in the present application can be experimentally derived using an Agilent Technologies 6890 gas chromatogram with Flame Ionization Detector (FID), or equivalent using a DB-5 (5% phenyl-methylpolysiloxane) column 30 m×0.25 mm i.d., with a 0.25 micron film thickness available from Agilent Technologies. Chromatographic conditions are 1 mL/min of helium carrier with constant flow programming, a temperature program of 50° C. to 300° C. at […] temperature 350° C., split injection at 300° C. Different chromatographic conditions may be required to achieve separation of the analytes of interest and can be readily adjusted by one skilled in the art. A linear alkane hydrocarbon standard mix (C8-C22 available from Aldrich Chemical Company or equivalent) is injected and the retention time for each component is recorded. The test sample (appropriately diluted in a suitable solvent) is injected under the same conditions, and the retention time for each component of interest is recorded. The Kovats Index under non-isothermal conditions is calculated for each component of interest in the test sample using the equation: KI=100n+100[(tsubstance−tn)/(tn+1−tn)] Where: • t=the uncorrected retention time of a peak • unknown=the peak of interest • n=the number of carbon atoms in the smaller alkane whose peak is adjacent to the peak of interest

| logP [1] | KI (Kovats Retention Index) [2] | Log P [1] | Compound |
| --- | --- | --- | --- |
| 3.56 | 1920.3 |  | O=C(OCc1ccccc1)c1ccccc1O [Benzyl salicylate] |
| 4.06 | 1944.5 |  | Cc1ccc(OC(=O)c2ccccc2O)cc1 [p-Cresyl salicylate] |
| 4.58 | 1765.1 |  | CCCCCCOC(=O)c1ccccc1O [n-Hexyl salicylate] |
| 3.58 | 1572.9 |  | CCCCOC(=O)c1ccccc1O [Butyl salicylate] |
| 4.92 | 1889.5 |  | CCCCC(CC)COC(=O)c1ccccc1O (stereo not shown) [2-Ethylhexyl salicylate] |
| 4.09 | 1668.8 |  | CCCCCOC(=O)c1ccccc1O [amyl salicylate] |
| 3.05 | 1655.3 |  | CC(C)=CCOC(=O)c1ccccc1O [Prenyl salicylate] |
| 3.74 | 1616.4 |  | CC(C)CCOC(=O)c1ccccc1O [Isoamyl salicylate] |

More lines, now with the values behind:

| Compound | logP [1] | KI (Kovats Retention Index) [2] | Log P [1] |
| --- | --- | --- | --- |
| O=C(Oc1ccccc1)c1ccccc1O [Phenyl salicylate] | 3.49 | 1851.1 |  |
| O=C1CCCCCCCCC/C=C/CCCO1 [Habanolide] |  | 1862.9 | 4.32 |
| O=C1CCCCC/C=C/CCCCCCCCO1 [trans-ambrettolide] |  | 1961.1 | 4.64 |
| O=C1CCCCCCCCCCCCCCO1 [Exaltolide] | 4.81 | 1882 |  |
| O=C(OC1CCCCC1)c1ccccc1O [Cyclohexyl salicylate] | 4.15 | 1821 |  |
| CCC(=O)OCC(C)(C)OC(C)C1CCCC(C)(C)C1 (stereo not shown) [Helvetolide] |  | 1773 | 5.56 |
